Legend:
[1] = test system: cynomolgus macaque model of glaucoma; experiment: Retinal nerve fiber layer thickness by OCT in cynomolgus macaque model of glaucoma; assay type: in vivo
Procedure: (§1) Three weeks before the first laser trabeculoplasty, IOP was measured via a tomometer (SPHPR-320-61), once per week for three weeks. The first laser trabeculoplasty was performed in one eye for each macaque. Two weeks later, laser trabeculoplasty was repeated in the same eye (Week 0).
(§2) One week after the second laser trabeculoplasty (Week 1), IOP was measured and retinal nerve fiber layer (RNFL) thickness was measured via optical coherence tomography (OCT; RS3000 Advance, Nidek Co. Ltd., Gamagoori, Japan) (SPHPR- 320-58). The day after group assignment, the eyes were instilled with either vehicle, KR-67607 or brimonidine twice a day. On Day 1, the effect of treatment on IOP over time was measured before treatment and 1, 2, 4, and 8 hrs. after instillation. At the same time, blood samples were obtained. From the effects of dosing observed on Day 1, it was determined that 2 hrs. was a reasonable time time-to-test following instillation for subsequent observations.
(§3) Intraocular pressures were obtained at Weeks 2, 3, 4, 5, 7 and 9. Optical coherence tomography and color fundus photography (CFP) were performed at Weeks 1, 3, 5, 7, and 9 (SPHPR-320-56).

[2] = test system: cynomolgus macaque model of glaucoma; experiment: Funduscopy in cynomolgus macaque model of glaucoma; assay type: in vivo
Procedure: as §1, §2, §3

[3] = test system: cynomolgus macaque model of glaucoma; experiment: Intraocular pressure in cynomolgus macaque model of glaucoma (laser trabeculoplasty); assay type: in vivo
Procedure: as §1, §2, §3
Following measurements at Week 9, G3 macaques was randomized into two groups based on IOP, and the effect of KR-67607 (1.5 mg/mL, 3.0 mg/mL) on IOP was evaluated.

normal patients = details: cited from earlier work
[4] = cited from earlier work

Brimonidine tartrate [reference compound]
number of eyes with RNFL thickness greater than 50% compared to baseline ([1]; Week 9, 6 eyes per group): 1
RNFL thinning in glaucomatous eyes ([1]; repeated treatment, compared to vehicle-treated (G1)): appeared to inhibit
animals with a lesser degree of cupping compared to G1 ([2]; Week 3 to Week 5): three animals
animals with a small or lesser degree of cupping ([2]; Week 9): one animal
maximum decrease of IOP, contralateral normal eye ([3]; Day 1 dosing, 2 hours after dosing): 4.1±0.9 mmHg
maximum decrease of IOP, glaucomatous eye ([3]; Day 1 dosing, 2 hours after instillation): 19.5±2.7 mmHg
effect on trough IOP value ([3]; glaucomatous eyes, repeated treatment twice a day, brimonidine tartrate 0.1%, KR-67607 1.5 mg/mL): did not significantly affect
maximum decrease of IOP, normal eye ([3]; over weeks): 4.9±0.8 mmHg

CC1(C)[C@@H](OC(=O)CCC(=O)O)CC[C@]2(C)[C@H]3C(=O)C=C4[C@@H]5C[C@@](C)(C(=O)O)CC[C@]5(C)CC[C@@]4(C)[C@]3(C)CC[C@@H]12 [carbenoxolone]
reduce intraocular pressure to levels as low as (normal patients): 20%

2-hydroxypropyl-β-cyclodextrin [HP-β-CD]
solubility in water [4]: more than 1 g/ml
